In ChEMBL document CHEMBL1144833, “Synthesis and evaluation of novel aromatic substrates and competitive inhibitors of GABA aminotransferase” (Bioorg Med Chem Lett, 2008) one finds Relative stimulatory activity and IC50 data, which are given here for 7 molecules.

Some results are limits rather than exact numbers.

In assay [1] the target is T1, 4-aminobutyrate aminotransferase, mitochondrial (Homo sapiens, UniProt P80404). Description: Activity at GABA-AT assessed as substrate activity relative to gamma amino butyric acid. More on the design: concentration or dose not given beside the values.
The target of assay [2] is T1, 4-aminobutyrate aminotransferase, mitochondrial. Description: Inhibition of GABA-AT.

T1 sequence (P80404 whole entry): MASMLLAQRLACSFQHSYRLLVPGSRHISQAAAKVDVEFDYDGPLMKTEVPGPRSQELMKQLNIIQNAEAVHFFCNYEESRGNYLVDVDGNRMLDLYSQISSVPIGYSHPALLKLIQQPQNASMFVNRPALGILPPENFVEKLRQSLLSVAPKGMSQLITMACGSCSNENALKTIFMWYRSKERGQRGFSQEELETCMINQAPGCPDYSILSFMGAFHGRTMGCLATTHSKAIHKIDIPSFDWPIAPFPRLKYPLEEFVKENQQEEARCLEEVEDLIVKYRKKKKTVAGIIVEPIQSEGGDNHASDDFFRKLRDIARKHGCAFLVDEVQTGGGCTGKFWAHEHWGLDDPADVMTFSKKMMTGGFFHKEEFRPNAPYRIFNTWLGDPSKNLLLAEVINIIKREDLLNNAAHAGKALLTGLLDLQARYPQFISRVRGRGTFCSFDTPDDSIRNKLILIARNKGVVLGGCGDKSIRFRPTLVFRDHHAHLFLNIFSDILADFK

As a reminder, the IC50 is the point on the concentration scale where inhibition reaches its midpoint. For `Nc1cccc(CC(=O)O)c1`, the Relative stimulatory activity in assay [1] amounted to 0%. Also, the IC50 in assay [2] is greater than 5 mM.
On the same counts, the results for `NCc1cccc(CC(=O)O)c1` are 0.78% and greater than 5 mM.
Take `NCc1cccc(C(=O)O)c1`: the Relative stimulatory activity in assay [1] was 3.42%. The same molecule had an IC50 in assay [2] greater than 5 mM.
With `NCc1ccccc1CC(=O)O`, the Relative stimulatory activity in assay [1] came out at 5.65%. The molecule also registered an IC50 in assay [2] greater than 5 mM.
With `Nc1cccc(C(=O)O)c1` [3-AMINOBENZOIC ACID], the Relative stimulatory activity in assay [1] was found to be 0%. Further, the IC50 in assay [2] is greater than 5 mM.
The matching figures for `NCc1ccccc1C(=O)O`: 0% and greater than 5 mM.
Turning to `Nc1ccccc1C(=O)O` [ANTHRANILIC ACID], the Relative stimulatory activity in assay [1] was 0%. This molecule had an IC50 in assay [2] greater than 5 mM.
